{"source": "patent US11590103B2", "about": "“Ascorbate in the prevention of statin induced vascular calcification” (priority 2019, dated 2023)", "assay_type_in_all_cases": "cell-based", "key": {"[1]": {"tested_on": "human aortic smooth muscle cells (AoSMC)", "assay": "Calcium accumulation in extracellular matrix of cultured AoSMC", "protocol": "(§1) Cell viability was monitored with MTT assay.\nAoSMC were seeded on fibronectin covered plastic plates at density 25,000 per square cm and grown to confluence for 5-7 days. […] J Cardiovasc Pharmacol 2008; 52:55-65. After four washes with PBS, ECM layers were solubilized by incubation in 0.6N HCl for 48 hours at 37° C. Calcium content in solubilized samples was measured with TECO Ca assay according to manufacturer's protocol."}, "[2]": {"tested_on": "human aortic smooth muscle cells (AoSMC)", "assay": "Alkaline phosphatase activity assay in AoSMC", "settings": "300 mcM ascorbate, regular growth medium, FIG. 1", "protocol": "AoSMC were plated in 96 well plates and grown to confluent layer. Cells were incubated with ascorbic acid in growth medium for three days. Cells were washed with phosphate buffered saline (PBS) and supplemented with 50 mcl/well 25 mcg/ml 4-MUP (fluorescent ALP substrate, Sigma) in alkaline buffer (Sigma)/1% Triton X100 for 1 h at room temperature. Fluorescence was measured at 360/450 nm."}, "[3]": {"tested_on": "human aortic smooth muscle cells (AoSMC)", "assay": "Expression of osteoblast markers in AoSMC (immunoassay)", "settings": "100 mcM ascorbic acid, medium with 5 mM beta-glycerophosphate and 25 mcM forskolin, FIG. 3", "protocol": "as §1\n(§2) For the experiments AoSMC, DF and hFOB cells were seeded in separate 96 well plastic plates at density 25,000 per square cm and grown to confluence for 5-7 days. Tested compounds were added to cells at indicated concentrations for 72 hours in DMEM supplemented with 2% FBS. Cell layers were washed three times with PBS and fixed with 3% formaldehyde in PBS at 4° C. for one hour. Fixed cell layers were washed four times with PBS and treated with 1% BSA/PBS for one hour at RT. Immunoassay for osteogenic markers was done by sequential incubation with primary monoclonal antibodies (R&D Systems) in 1% BSA/PBS for 2 hours followed by 1 hour incubation with secondary goat anti-mouse IgG antibodies labeled with horse radish peroxidase (HRP). Retained peroxidase activity was measured after the last washing cycle (three times with 0.1% BSA/PBS) using TMB peroxidase substrate reagent (Rockland). Optical density was read with plate reader (Molecular Devices) at 450 nm and expressed as percentage of control cell samples incubated in unsupplemented 2% FBS/DMEM. To ensure a direct comparison of osteogenic markers expression on different cell types all pcell covered plates were treated identical and simultaneously during immunoassay."}, "[4]": {"tested_on": "human dermal fibroblasts (DF)", "assay": "Expression of osteoblast markers in dermal fibroblasts (immunoassay)", "settings": "100 mcM ascorbic acid, medium with 5 mM beta-glycerophosphate and 25 mcM forskolin, FIG. 3", "protocol": "as §1, §2"}, "[5]": {"settings": "100 mcM ascorbate concomitant with simvastatin, without forskolin, FIG. 2A"}}}
{"smiles": "O=C1O[C@H]([C@@H](O)CO)C(O)=C1O", "note": "[ascorbic acid, L-ascorbic acid]", "values": [{"measurement": "decrease of calcium accumulation", "setting": "[1]; 100 mcM ascorbate added to 1 mM mevastatin, with 25 mcM forskolin, FIG. 2B", "value": 19, "unit": "%"}, {"measurement": "accumulated calcium", "setting": "[1]; [5]", "value": 0.2, "unit": "mcg/well"}, {"measurement": "decrease of accumulated calcium", "setting": "[1]; [5]", "value": 54, "unit": "%"}, {"measurement": "decrease of extracellular Ca accumulation by AoSMC", "setting": "[1]; 300 mcM ascorbate, regular growth medium, FIG. 1", "value": 20, "unit": "%"}, {"measurement": "decrease of cellular alkaline phosphatase activity", "setting": "[2]", "value": 80, "unit": "%"}, {"measurement": "expression of all tested osteogenic markers", "setting": "[3]", "value": "significantly reduced"}, {"measurement": "expression of all tested osteogenic markers", "setting": "[4]", "value": "significantly reduced"}]}
{"smiles": "CC[C@H](C)C(=O)O[C@H]1CCC=C2C=C[C@H](C)[C@H](CC[C@@H]3C[C@@H](O)CC(=O)O3)[C@H]21", "note": "[mevastatin]", "values": [{"measurement": "calcium accumulation", "setting": "[1]; 1 mM mevastatin, with 25 mcM forskolin, FIG. 2B, control 1.35 mcg/well", "value": 1.8, "unit": "mcg/well"}]}
{"smiles": "CCC(C)(C)C(=O)O[C@H]1C[C@@H](C)C=C2C=C[C@H](C)[C@H](CC[C@@H]3C[C@@H](O)CC(=O)O3)[C@H]21", "note": "[simvastatin]", "values": [{"measurement": "increase of calcium accumulation in AoSMC layers", "setting": "[1]; in the presence of simvastatin, without forskolin, FIG. 2A", "value": 23, "unit": "%"}]}
